Data published in ChEMBL document CHEMBL3882729, “Receptor-type kinase modulators and methods of use” (2009).
pIC50: −log10 of the molar value.

Experiments:
[1] = molecular target: Receptor tyrosine-protein kinase erbB-2 (Homo sapiens, UniProt P04626); assay: Inhibition of recombinant human N-terminal GST His6-tagged thrombin cleavage site-fused ErbB2 kinase domain (Q679 to V1255 residues) expressed in baculovirus infected insect Sf9 cells using biotinylated poly-EY as substrate after 60 mins by alphascreen assay
Ephrin type-A receptor 2 = Ephrin type-A receptor 2 (Homo sapiens, UniProt P29317); assay: Inhibition of recombinant human N-terminal His6-tagged EphA2 (N598 to R890 residues) expressed in baculovirus using poly-EY as substrate after 180 mins by luciferase coupled chemiluminescence assay
Ephrin type-B receptor 4 = molecular target: T1, Ephrin type-B receptor 4 (Homo sapiens, UniProt P54760); assay: Inhibition of recombinant human N-terminal His6-tagged EphB4 kinase domain (E605 to E890 residues) expressed in baculovirus using poly-AEKY as substrate after 150 mins in presence of gamma33P-ATP by liquid scintillation spectrometry
T1 sequence (P54760 whole entry): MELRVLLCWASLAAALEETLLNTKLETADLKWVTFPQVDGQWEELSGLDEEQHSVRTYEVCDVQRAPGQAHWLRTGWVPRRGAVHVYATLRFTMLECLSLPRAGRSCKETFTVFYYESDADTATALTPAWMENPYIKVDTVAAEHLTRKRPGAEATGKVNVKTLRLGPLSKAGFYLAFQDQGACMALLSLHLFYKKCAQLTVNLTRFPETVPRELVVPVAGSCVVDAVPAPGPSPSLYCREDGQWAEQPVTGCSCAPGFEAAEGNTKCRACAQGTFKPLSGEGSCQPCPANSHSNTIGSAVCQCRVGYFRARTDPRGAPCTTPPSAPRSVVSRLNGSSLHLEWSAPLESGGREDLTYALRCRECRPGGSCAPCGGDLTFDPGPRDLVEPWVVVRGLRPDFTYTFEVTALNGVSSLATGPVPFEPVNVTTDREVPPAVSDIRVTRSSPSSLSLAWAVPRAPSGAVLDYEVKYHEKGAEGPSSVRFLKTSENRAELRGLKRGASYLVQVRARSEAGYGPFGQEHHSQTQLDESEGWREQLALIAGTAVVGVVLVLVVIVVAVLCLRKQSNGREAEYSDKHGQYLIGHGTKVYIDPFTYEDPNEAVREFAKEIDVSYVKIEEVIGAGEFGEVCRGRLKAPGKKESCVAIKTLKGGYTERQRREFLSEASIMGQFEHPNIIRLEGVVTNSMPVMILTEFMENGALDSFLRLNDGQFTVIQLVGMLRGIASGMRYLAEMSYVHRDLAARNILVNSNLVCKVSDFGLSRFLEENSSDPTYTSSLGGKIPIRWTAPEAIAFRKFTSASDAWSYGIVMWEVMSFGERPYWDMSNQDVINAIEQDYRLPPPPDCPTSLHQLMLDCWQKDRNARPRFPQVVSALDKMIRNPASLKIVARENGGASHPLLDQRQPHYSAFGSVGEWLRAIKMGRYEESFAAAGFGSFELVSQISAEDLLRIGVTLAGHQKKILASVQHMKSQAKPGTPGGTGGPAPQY

[2] = molecular target: Vascular endothelial growth factor receptor 2 (Homo sapiens, UniProt P35968); assay: Inhibition of recombinant human N-terminal GST-fused KDR (D807 to V1356 residues) expressed in baculovirus infected […] insect Sf9 cells using poly-EY as substrate after 240 mins by luciferase coupled chemiluminescence assay
[3] = molecular target: Vascular endothelial growth factor receptor 1 (Homo sapiens, UniProt P17948); assay: Inhibition of recombinant human N-terminal GST-tagged factor 10a cleavage site-fused Flt1 (K784 to I1338 residues) expressed in baculovirus infected insect Sf9 cells using poly-EY as substrate after 120 mins in presence of gamma33P-ATP by liquid scintillation spectrometry
Sequence of Vascular endothelial growth factor receptor 1 (P17948 whole entry, the tested form may be a part): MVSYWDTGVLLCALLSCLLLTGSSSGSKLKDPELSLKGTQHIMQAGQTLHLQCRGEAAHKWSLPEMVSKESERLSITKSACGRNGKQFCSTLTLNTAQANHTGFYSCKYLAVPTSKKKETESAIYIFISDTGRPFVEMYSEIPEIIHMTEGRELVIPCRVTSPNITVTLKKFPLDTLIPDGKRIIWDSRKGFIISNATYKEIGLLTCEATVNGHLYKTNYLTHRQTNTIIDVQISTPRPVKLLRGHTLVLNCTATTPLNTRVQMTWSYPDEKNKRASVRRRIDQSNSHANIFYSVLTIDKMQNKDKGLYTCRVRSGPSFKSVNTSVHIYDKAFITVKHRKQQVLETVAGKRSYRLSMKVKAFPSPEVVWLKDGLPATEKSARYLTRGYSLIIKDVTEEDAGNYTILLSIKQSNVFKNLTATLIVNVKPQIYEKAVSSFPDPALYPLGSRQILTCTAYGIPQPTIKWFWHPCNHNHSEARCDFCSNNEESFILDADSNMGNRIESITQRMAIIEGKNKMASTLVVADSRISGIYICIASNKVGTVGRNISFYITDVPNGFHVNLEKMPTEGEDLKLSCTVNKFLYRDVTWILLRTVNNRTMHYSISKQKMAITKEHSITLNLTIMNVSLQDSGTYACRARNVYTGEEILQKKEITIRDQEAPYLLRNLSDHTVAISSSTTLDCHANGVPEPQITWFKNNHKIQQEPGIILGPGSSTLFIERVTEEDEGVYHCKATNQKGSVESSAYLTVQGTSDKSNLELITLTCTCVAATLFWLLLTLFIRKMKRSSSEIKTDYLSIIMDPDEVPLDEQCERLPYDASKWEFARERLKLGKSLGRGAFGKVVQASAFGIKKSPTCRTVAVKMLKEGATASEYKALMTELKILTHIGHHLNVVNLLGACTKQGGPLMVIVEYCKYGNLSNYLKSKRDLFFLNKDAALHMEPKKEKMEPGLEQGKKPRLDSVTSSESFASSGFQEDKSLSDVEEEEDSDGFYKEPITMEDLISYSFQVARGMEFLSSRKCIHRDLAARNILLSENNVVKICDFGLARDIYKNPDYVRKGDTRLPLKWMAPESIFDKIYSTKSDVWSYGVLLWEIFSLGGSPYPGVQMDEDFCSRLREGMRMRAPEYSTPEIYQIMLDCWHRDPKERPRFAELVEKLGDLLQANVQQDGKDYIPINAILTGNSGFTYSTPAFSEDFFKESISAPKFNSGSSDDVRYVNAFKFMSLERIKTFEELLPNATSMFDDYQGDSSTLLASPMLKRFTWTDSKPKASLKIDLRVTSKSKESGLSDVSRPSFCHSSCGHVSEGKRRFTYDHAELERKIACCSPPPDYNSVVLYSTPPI

Sequence of Ephrin type-A receptor 2 (P29317 whole entry, the tested form may be a part): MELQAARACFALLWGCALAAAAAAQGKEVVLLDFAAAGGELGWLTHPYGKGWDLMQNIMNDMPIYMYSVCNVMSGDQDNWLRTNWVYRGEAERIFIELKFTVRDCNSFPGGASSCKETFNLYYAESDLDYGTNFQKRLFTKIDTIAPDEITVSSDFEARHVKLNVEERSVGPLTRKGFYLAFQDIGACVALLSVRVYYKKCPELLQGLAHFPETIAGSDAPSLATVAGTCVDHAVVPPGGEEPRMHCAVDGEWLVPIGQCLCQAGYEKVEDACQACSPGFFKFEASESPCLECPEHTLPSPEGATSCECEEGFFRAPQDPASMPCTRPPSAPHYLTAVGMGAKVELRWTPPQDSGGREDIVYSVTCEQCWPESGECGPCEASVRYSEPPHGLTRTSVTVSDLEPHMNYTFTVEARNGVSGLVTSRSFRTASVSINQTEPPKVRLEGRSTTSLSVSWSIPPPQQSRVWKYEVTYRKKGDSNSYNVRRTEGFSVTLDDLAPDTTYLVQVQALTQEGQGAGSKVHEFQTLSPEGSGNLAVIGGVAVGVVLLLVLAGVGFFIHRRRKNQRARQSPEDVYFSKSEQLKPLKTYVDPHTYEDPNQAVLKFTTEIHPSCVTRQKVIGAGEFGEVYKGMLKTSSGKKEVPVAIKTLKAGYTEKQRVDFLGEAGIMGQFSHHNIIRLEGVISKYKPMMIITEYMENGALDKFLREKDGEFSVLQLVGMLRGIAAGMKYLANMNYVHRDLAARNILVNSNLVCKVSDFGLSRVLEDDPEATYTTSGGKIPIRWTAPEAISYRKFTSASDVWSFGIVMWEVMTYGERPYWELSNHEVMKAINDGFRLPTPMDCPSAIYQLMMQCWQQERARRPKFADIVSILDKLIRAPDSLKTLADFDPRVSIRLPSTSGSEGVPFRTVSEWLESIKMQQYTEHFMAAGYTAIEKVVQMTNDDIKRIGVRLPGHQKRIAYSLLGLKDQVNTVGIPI
Sequence of Vascular endothelial growth factor receptor 2 (P35968 whole entry, the tested form may be a part): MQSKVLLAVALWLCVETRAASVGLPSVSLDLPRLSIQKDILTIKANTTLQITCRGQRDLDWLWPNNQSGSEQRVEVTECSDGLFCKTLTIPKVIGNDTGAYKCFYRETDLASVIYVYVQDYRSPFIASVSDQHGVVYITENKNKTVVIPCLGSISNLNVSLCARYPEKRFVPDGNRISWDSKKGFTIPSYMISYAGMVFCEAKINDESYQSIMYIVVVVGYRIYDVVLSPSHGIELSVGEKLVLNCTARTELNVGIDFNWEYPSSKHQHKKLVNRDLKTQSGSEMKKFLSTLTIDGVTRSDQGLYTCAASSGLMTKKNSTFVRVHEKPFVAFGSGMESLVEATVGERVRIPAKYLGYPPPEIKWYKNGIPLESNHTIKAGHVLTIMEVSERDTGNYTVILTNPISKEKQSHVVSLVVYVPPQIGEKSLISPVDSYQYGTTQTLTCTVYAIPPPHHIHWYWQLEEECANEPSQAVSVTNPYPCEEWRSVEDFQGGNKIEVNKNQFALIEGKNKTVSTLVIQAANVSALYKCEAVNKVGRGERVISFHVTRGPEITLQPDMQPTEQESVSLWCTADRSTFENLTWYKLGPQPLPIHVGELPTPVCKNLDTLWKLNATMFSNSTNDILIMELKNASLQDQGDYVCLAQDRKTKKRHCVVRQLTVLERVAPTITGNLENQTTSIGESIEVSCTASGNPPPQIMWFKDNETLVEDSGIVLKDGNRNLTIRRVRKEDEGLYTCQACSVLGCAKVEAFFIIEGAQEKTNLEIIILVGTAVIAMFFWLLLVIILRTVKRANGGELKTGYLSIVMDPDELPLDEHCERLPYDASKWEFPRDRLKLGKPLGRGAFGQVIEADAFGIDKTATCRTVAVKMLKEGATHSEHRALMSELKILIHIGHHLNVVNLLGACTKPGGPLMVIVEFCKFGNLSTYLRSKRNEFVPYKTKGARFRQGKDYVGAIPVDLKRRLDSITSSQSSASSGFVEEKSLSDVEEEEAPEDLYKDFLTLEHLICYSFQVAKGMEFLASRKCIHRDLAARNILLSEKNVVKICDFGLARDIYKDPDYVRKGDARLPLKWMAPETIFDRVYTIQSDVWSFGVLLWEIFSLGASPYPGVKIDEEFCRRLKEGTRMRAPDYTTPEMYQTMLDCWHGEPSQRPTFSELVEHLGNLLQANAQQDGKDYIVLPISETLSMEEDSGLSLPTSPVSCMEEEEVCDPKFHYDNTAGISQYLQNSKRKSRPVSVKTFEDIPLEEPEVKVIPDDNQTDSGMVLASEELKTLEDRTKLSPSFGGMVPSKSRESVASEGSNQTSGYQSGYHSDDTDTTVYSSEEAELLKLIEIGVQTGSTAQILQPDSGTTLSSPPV
Sequence of Receptor tyrosine-protein kinase erbB-2 (P04626 whole entry, the tested form may be a part): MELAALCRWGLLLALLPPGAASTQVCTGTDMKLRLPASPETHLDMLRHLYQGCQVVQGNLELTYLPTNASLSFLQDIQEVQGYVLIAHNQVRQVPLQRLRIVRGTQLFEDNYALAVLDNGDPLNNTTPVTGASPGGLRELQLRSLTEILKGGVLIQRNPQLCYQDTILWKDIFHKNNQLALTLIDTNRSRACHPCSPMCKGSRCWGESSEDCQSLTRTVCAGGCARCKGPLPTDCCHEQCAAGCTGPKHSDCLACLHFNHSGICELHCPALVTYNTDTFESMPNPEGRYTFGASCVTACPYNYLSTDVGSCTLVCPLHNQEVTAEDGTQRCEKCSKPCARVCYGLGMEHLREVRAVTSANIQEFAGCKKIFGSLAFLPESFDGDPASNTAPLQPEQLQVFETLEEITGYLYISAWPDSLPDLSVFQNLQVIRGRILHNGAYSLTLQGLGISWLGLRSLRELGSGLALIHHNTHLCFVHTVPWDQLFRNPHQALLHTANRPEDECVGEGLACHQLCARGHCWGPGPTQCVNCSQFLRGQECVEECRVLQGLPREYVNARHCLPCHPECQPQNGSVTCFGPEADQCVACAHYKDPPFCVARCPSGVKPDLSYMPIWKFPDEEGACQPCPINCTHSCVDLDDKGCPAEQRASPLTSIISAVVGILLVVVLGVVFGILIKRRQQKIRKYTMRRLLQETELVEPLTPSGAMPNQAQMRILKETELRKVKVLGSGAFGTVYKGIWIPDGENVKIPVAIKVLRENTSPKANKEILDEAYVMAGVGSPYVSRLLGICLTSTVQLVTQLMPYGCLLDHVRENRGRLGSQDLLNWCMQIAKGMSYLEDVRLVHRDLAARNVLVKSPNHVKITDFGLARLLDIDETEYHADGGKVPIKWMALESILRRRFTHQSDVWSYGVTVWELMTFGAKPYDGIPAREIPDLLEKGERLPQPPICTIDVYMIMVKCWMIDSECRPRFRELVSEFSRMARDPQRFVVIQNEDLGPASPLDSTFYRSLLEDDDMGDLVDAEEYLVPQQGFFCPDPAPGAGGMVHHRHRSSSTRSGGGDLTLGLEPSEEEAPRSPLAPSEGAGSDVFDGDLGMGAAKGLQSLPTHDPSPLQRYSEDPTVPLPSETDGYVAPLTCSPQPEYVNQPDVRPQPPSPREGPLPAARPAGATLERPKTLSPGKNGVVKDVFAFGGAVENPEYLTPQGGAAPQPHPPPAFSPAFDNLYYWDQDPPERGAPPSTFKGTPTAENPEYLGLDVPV

SMILES | pIC50 [1] | pIC50 (Ephrin type-A receptor 2) | pIC50 (Ephrin type-B receptor 4) | pIC50 [2] | pIC50 [3]
COc1cc2c(Nc3ccc(Br)c(Cl)c3F)ncnc2cc1OC[C@@H]1CN(C)CC(=O)N1C | 4.70 to 6.00 | 6.00 to 7.30 | 6.00 to 7.30 | 6.00 to 7.30 | 
COc1cc2c(Nc3ccc(F)c(Cl)c3F)ncnc2cc1OCC1CN(C)C(C)(C)CO1 (stereo unspecified) | 6.00 to 7.30 | > 7.30 | > 7.30 | 6.00 to 7.30 | 
COc1cc2c(Nc3ccc(Cl)c(Cl)c3F)ncnc2cc1OC[C@@H]1CN(C)CC(=O)N1C | 4.70 to 6.00 | 6.00 to 7.30 | 6.00 to 7.30 | 6.00 to 7.30 | 
COc1cc2c(Nc3ccc(Cl)c(Cl)c3)ncnc2cc1OCC1CN2CSC[C@H]2CO1 (stereo partly specified) |  | 6.00 to 7.30 |  | 6.00 to 7.30 | 6.00 to 7.30
COc1cc2c(Nc3ccc(Cl)c(Cl)c3F)ncnc2cc1OCC1CN(C)C(C)(C)CO1 (stereo unspecified) | > 7.30 | > 7.30 | > 7.30 | > 7.30 | 
COc1cc2c(Nc3cc(Cl)c(Cl)cc3F)ncnc2cc1OCC1CN(C)C(C)(C)CO1 (stereo unspecified) | > 7.30 | > 7.30 | > 7.30 | > 7.30 | 
COc1cc2c(Nc3ccc(Cl)c(Cl)c3F)ncnc2cc1OC[C@@H]1CN(C)CC(=O)N1 | 6.00 to 7.30 | 6.00 to 7.30 | 6.00 to 7.30 | 6.00 to 7.30 | 
COc1cc2c(Nc3ccc(Br)c(Cl)c3F)ncnc2cc1OC[C@@H]1CN(C)CC(=O)N1 | 6.00 to 7.30 | 6.00 to 7.30 | 6.00 to 7.30 | 6.00 to 7.30 | 
COc1cc2c(Nc3ccc(Br)c(Cl)c3F)ncnc2cc1OCC1CN(C)C(C)(C)CO1 (stereo unspecified) | > 7.30 | > 7.30 | > 7.30 | > 7.30 | 
COc1cc2c(Nc3ccc(Cl)c(Cl)c3F)ncnc2cc1OC[C@@H]1CN2CCC[C@@H]2C(=O)N1 |  | > 7.30 |  | > 7.30 | 6.00 to 7.30
COc1cc2c(Nc3ccc(Cl)c(Cl)c3F)ncnc2cc1OC[C@@H]1CN2CCC[C@H]2C(=O)N1 |  | 6.00 to 7.30 |  | > 7.30 | 6.00 to 7.30
COc1cc2c(Nc3cc(Cl)c(Br)cc3F)ncnc2cc1OC[C@H]1CN2CCOC[C@H]2CO1 | 6.00 to 7.30 | 6.00 to 7.30 | 6.00 to 7.30 | 6.00 to 7.30 | 6.00 to 7.30
COc1cc2c(Nc3cc(Cl)c(Br)cc3F)ncnc2cc1OCC1CN(C)C(C)(C)CO1 (stereo unspecified) | 6.00 to 7.30 | > 7.30 | > 7.30 | > 7.30 | 
COc1cc2c(Nc3cc(Cl)c(Cl)cc3F)ncnc2cc1OC[C@H]1CN2CCOC[C@H]2CO1 | 6.00 to 7.30 | 6.00 to 7.30 | 6.00 to 7.30 | 6.00 to 7.30 | 6.00 to 7.30
COc1cc2c(Nc3ccc(Br)c(Cl)c3Cl)ncnc2cc1OCC1CN(C)C(C)(C)CO1 (stereo unspecified) | 6.00 to 7.30 | > 7.30 | > 7.30 | 6.00 to 7.30 | 

Other lines, results leading:

pIC50 [1] | pIC50 (Ephrin type-A receptor 2) | pIC50 (Ephrin type-B receptor 4) | pIC50 [2] | pIC50 [3] | SMILES
4.70 to 6.00 | 4.70 to 6.00 | 4.70 to 6.00 | 4.70 to 6.00 |  | COc1cc2c(Nc3ccc(N4CCN(C)CC4)c(Cl)c3Cl)ncnc2cc1O[C@H]1CO[C@H]2[C@@H]1OC[C@@H]2F
6.00 to 7.30 | 4.70 to 6.00 | 6.00 to 7.30 | 4.70 to 6.00 |  | COc1cc2c(Nc3ccc(Br)c(Cl)c3)ncnc2cc1O[C@H]1CO[C@H]2[C@@H]1OC[C@@H]2O
6.00 to 7.30 | 4.70 to 6.00 | 6.00 to 7.30 | 4.70 to 6.00 |  | COc1cc2c(Nc3ccc(Br)c(Cl)c3)ncnc2cc1O[C@H]1CO[C@H]2[C@@H]1OC[C@@H]2S(C)(=O)=O
4.70 to 6.00 | 4.70 to 6.00 | 6.00 to 7.30 | 6.00 to 7.30 |  | CCN(CC)[C@H]1CO[C@H]2[C@@H]1OC[C@@H]2Oc1cc2ncnc(Nc3ccc(Br)c(Cl)c3)c2cc1OC
4.70 to 6.00 | 4.70 to 6.00 | 6.00 to 7.30 | 4.70 to 6.00 |  | COc1cc2c(Nc3ccc(Br)c(Cl)c3)ncnc2cc1O[C@H]1CO[C@H]2[C@@H]1OC[C@@H]2N1CCOCC1
4.70 to 6.00 | 4.70 to 6.00 | 6.00 to 7.30 | 4.70 to 6.00 |  | COc1cc2c(Nc3ccc(Br)c(Cl)c3)ncnc2cc1O[C@H]1CO[C@H]2[C@@H]1OC[C@@H]2N1CCCC1
4.70 to 6.00 | 4.70 to 6.00 | 4.70 to 6.00 | 4.70 to 6.00 |  | COc1cc2c(Nc3ccc(N4CCN(C)CC4)cc3)ncnc2cc1O[C@H]1CO[C@H]2[C@@H]1OC[C@@H]2F
4.70 to 6.00 | 4.70 to 6.00 | 6.00 to 7.30 | 4.70 to 6.00 |  | COc1cc2c(Nc3ccc(Br)c(Cl)c3)ncnc2cc1O[C@H]1CO[C@H]2[C@@H]1OC[C@@H]2N1CCCCC1
4.70 to 6.00 | 4.70 to 6.00 | 6.00 to 7.30 | 4.70 to 6.00 |  | COc1cc2c(Nc3ccc(Br)c(Cl)c3)ncnc2cc1O[C@H]1CO[C@H]2[C@@H]1OC[C@@H]2OC(C)=O
4.70 to 6.00 |  |  |  | 4.70 to 6.00 | COc1cc2c(Nc3ccc(Br)c(Cl)c3Cl)ncnc2cc1OC[C@@H]1CO[C@H]2[C@@H]1OC[C@@H]2OC
6.00 to 7.30 | 4.70 to 6.00 | 6.00 to 7.30 | 6.00 to 7.30 |  | COc1cc2c(Nc3ccc(Br)c(Cl)c3)ncnc2cc1O[C@@H]1CCOC1
6.00 to 7.30 | 4.70 to 6.00 | 6.00 to 7.30 | 4.70 to 6.00 |  | COc1cc2c(Nc3ccc(Br)c(Cl)c3)ncnc2cc1O[C@@H]1CO[C@H]2[C@@H]1OC[C@@H]2NS(C)(=O)=O
6.00 to 7.30 | 4.70 to 6.00 | 6.00 to 7.30 | 4.70 to 6.00 |  | COc1cc2c(Nc3ccc(Br)c(Cl)c3)ncnc2cc1O[C@@H]1CO[C@H]2[C@@H]1OC[C@@H]2O
4.70 to 6.00 | 4.70 to 6.00 | 6.00 to 7.30 | 4.70 to 6.00 |  | COc1cc2c(Nc3ccc(Br)c(Cl)c3)ncnc2cc1O[C@H]1CO[C@H]2[C@@H]1OC[C@@H]2SC
4.70 to 6.00 | 4.70 to 6.00 | 6.00 to 7.30 | 4.70 to 6.00 |  | COc1cc2c(Nc3ccc(Br)c(Cl)c3)ncnc2cc1O[C@H]1CO[C@H]2[C@@H]1OC[C@@H]2NC(C)=O
4.70 to 6.00 | 4.70 to 6.00 | 6.00 to 7.30 | 6.00 to 7.30 |  | COc1cc2c(Nc3ccc(Br)c(Cl)c3)ncnc2cc1OC1CCN(C)C1 (stereo unspecified)
4.70 to 6.00 | 4.70 to 6.00 | 6.00 to 7.30 | 4.70 to 6.00 |  | COc1cc2c(Nc3ccc(Br)c(Cl)c3)ncnc2cc1O[C@H]1CO[C@H]2[C@@H]1OC[C@@H]2N1CCN(C)CC1
4.70 to 6.00 | 4.70 to 6.00 | 6.00 to 7.30 | 4.70 to 6.00 |  | CN[C@H]1CO[C@H]2[C@@H]1OC[C@@H]2Oc1cc2ncnc(Nc3ccc(Br)c(Cl)c3)c2cc1OC
4.70 to 6.00 | 4.70 to 6.00 | 6.00 to 7.30 | 4.70 to 6.00 |  | COc1cc2c(Nc3ccc(Br)c(Cl)c3)ncnc2cc1O[C@H]1CO[C@H]2[C@@H]1OC[C@@H]2N
4.70 to 6.00 | 4.70 to 6.00 | 4.70 to 6.00 | 4.70 to 6.00 |  | COc1cc2c(Nc3ccc(Cl)c(Cl)c3N3CCN(C)CC3)ncnc2cc1O[C@H]1CO[C@H]2[C@@H]1OC[C@@H]2F
4.70 to 6.00 | 4.70 to 6.00 | 4.70 to 6.00 | 4.70 to 6.00 |  | COc1cc2c(Nc3ccc(Br)c(Cl)c3)ncnc2cc1O[C@@H]1CO[C@H]2[C@@H]1OC[C@@H]2OS(C)(=O)=O
